Experimental data taken from patent US9346829B2, “5-HT3 receptor antagonists” (Takeda Phamaceutical Company Limited, priority 2012, dated 2016).
Where a name gives a salt, the structure may show the parent alone.

Biological target: 5-HT3a receptor (Homo sapiens (Human), UniProt P46098)
Assay: Inhibition of Ca flux activity of 5-HT3 in vitro assay
Assay type: cell-based
Details: approximate IC50; calcium flux, 5-HT3a expressed in HEK-293T cells, 5HT 216 nM; read-out: IC50
Description: The 5-HT3 antagonist activity of the compounds of the invention was determined by measuring the ability of the compounds to inhibit the calcium flux activity of […] receptor expressed in HEK-293T cells. HEK-293T cells were transfected with the 5-HT3a expression construct using Xtreme Gene 9 (Roche) in 150 mm tissue culture treated plates and incubated for 24 hours at 37° C. Cells were then split and plated at a density of 60K cells/well in poly-lysine coated, black 96-well plates with clear bottoms (BD BioSciences) and incubated overnight at 37° C. Growth media was removed and cells loaded with 200 uL calcium indicator dye in HBSS containing 20 mM HEPES (Calcium 5 Assay kit, Molecular Devices) and incubated at 37° C. for 1 hour. While cells were incubating, the 10× antagonist and agonist/antagonist addition plates were made. For 10× antagonist plate: half log serial dilutions (final concentrations range from 10^−7 through 10^−10 with the bottom well a negative, no ligand control) were made from test compounds in DMSO at a 1000× concentration and then diluted to 10× in HBSS/20 mM HEPES. For addition plate: 5HT was diluted to 100× in HBSS/20 mM HEPES (final concentration in the assay—216 nM) and 15 uL was added to each well of the addition plate, 15 uL of 10× compound was also added to the addition plate, and finally 120 uL of HBSS/20 mM HEPES (for a total of 150 uL). Cells were then removed from the incubator and equilibrated to room temperature for 10 minutes, then 22.5 uL of 10× test compounds were added in triplicate to the plates and incubated at room temperature for 10 minutes (Tropisetron was used as a positive control in every assay). Test plate and addition plate were loaded into the FlexStation III (Molecular Devices), and using the fluidics, 22.5 uL compound additions were made (at t=˜17 seconds), and fluorescence was measured for 90 seconds, reading every 2.2 seconds. Data sets were analyzed as max minus min using Software Max Pro (Molecular Devices). IC50 curves were generated using non-linear regression in GraphPad Prism.

5-HT3a receptor, sequence (P46098 24-478): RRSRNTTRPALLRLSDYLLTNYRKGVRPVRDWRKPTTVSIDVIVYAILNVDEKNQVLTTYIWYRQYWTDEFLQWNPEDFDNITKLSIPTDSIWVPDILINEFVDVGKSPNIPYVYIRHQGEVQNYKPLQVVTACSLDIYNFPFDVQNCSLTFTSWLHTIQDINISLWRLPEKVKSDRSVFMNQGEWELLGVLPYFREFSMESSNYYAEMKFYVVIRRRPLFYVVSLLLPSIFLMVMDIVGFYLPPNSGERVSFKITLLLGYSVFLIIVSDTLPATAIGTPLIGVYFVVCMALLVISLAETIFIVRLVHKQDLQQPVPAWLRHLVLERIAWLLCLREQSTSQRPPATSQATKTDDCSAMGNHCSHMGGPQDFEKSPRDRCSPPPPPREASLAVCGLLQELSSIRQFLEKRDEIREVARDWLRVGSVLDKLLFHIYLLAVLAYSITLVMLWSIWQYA

**Q.** With CCN1[C@@H]2COC[C@H]1C[C@@H](NC(=O)c1cn(-c3cnn(C)c3)c3ccccc13)C2 [Compound 31, N-((1R,5S,7S)-9-ethyl-3-oxa-9-azabicyclo[3.3.1]nonan-7-yl)-1-(1-methyl-1H-pyrazol-4-yl)-1H-indole-3-carboxamide] as the compound, how does the IC50 read?
**A.** > 1000 nM

**Q.** How did the IC50 turn out when CN1[C@@H]2COC[C@H]1C[C@@H](NC(=O)c1cn(-c3cccnc3)c3ccccc13)C2 [Compound 2, N-((1R,5S,7S)-9-methyl-3-oxa-9-azabicyclo[3.3.1]nonan-7-yl)-1-(pyridin-3-yl)-1H-indole-3-carboxamide, 2,2,2-trifluoroacetate] was run?
**A.** 0.51 nM

**Q.** With CN1[C@@H]2COC[C@H]1C[C@@H](NC(=O)c1cn(-c3ccccn3)c3ncccc13)C2 [Compound 10, N-(1R,5S,7S)-9-methyl-3-oxa-9-azabicyclo[3.3.1]nonan-7-yl)-1-(pyridin-2-yl)-1H-pyrrolo[2,3-b]pyridine-3-carboxamide, 2,2,2-trifluoroacetic acid salt] as the compound, how does the IC50 read?
**A.** 0.65 nM

**Q.** Cc1ccncc1-n1cc(C(=O)N[C@H]2C[C@H]3COC[C@@H](C2)N3C)c2ccccc21 [Compound 21, N-((1R,5S,7S)-9-methyl-3-oxa-9-azabicyclo[3.3.1]nonan-7-yl)-1-(4-methylpyridin-3-yl)-1H-indole-3-carboxamide, 2,2,2-trifluoroacetic acid salt] was tested. Which IC50 did it give?
**A.** 1.1 nM

**Q.** For CN1[C@@H]2COC[C@H]1C[C@@H](NC(=O)c1cn(-c3cccnc3)c3ncc(F)cc13)C2 [Compound 13, 5-fluoro-N-((1R,5S,7S)-9-methyl-3-oxa-9-azabicyclo [3.3.1]nonan-7-yl)-1-(pyridin-3-yl)-1H-pyrrolo[2,3-b]pyridine-3-carboxamide, 2,2,2-trifluoroacetic acid salt], which IC50 is on record?
**A.** 0.72 nM

**Q.** With O=C(O[C@H]1C[C@H]2COC[C@@H](C1)N2)c1cn(-c2cccnc2)c2ccccc12 [Compound 5, (1R,5S,7S)-3-oxa-9-azabicyclo [3.3.1]nonan-7-yl 1-(pyridin-3-yl)-1H-indole-3-carboxylate, 2,2,2-trifluoroacetate] as the compound, how does the IC50 read?
**A.** 0.62 nM

**Q.** How did the IC50 turn out when CN1[C@@H]2COC[C@H]1C[C@@H](NC(=O)c1cn(-c3ccnn3C)c3ccccc13)C2 [Compound 23, 1-(1-methyl-1H-pyrazol-5-yl)-N-((1R,5S,7S)-9-methyl-3-oxa-9-azabicyclo[3.3.1]nonan-7-yl)-1H-indole-3-carboxamide, 2,2,2-trifluoroacetic acid salt] was run?
**A.** 1.01 nM

**Q.** Which IC50 does the source give for Cn1cc(-n2cc(C(=O)O[C@H]3C[C@H]4COC[C@@H](C3)N4)c3ccccc32)cn1 [Compound 9, (1R,5S,7S)-3-oxa-9-azabicyclo [3.3.1]nonan-7-yl 1-(1-methyl-1H-pyrazol-4-yl)-1H-indol-3-carboxylate, 2,2,2-trifluoroacetic acid salt] here?
**A.** 0.68 nM

**Q.** With CN1[C@@H]2COC[C@H]1C[C@@H](NC(=O)c1cn(-c3cccnc3)c3ncccc13)C2 [Compound 11, N-((1R,5S,7S)-9-methyl-3-oxa-9-azabicyclo[3.3.l]nonan-7-yl)-1-(pyridin-3-yl)-1H-pyrrolo[2,3-b]pyridine-3-carboxamide, 2,2,2-trifluoroacetic acid salt] as the compound, how does the IC50 read?
**A.** 0.6 nM

**Q.** With Cc1ncccc1-n1cc(C(=O)N[C@H]2C[C@H]3COC[C@@H](C2)N3C)c2ccccc21 [Compound 20, N-((1R,5S,7S)-9-methyl-3-oxa-9-azabicyclo[3.3.1]nonan-7-yl)-1-(2-methylpyridin-3-yl)-1H-indole-3-carboxamide, 2,2,2-trifluoroacetic acid salt] as the compound, how does the IC50 read?
**A.** 1.5 nM

**Q.** For O=C(N[C@H]1C[C@H]2COC[C@@H](C1)N2)c1cn(-c2cn[nH]c2)c2ccccc12 [Compound 30, N-((1R,5S,7S)-3-oxa-9-azabicyclo[3.3.1]nonan-7-yl)-1-(1H-pyrazol-4-yl)-1H-indole-3-carboxamide], which IC50 is on record?
**A.** 0.745 nM

**Q.** CN1[C@@H]2COC[C@H]1CC(NC(=O)c1cn(-c3ccncc3)c3ccccc13)C2 (stereo partly drawn) [Compound 4, N-((1R,5S,7S)-9-methyl-3-oxa-9-azabicyclo[3.3.1]nonan-7-yl)-1-(pyridin-4-yl)-1H-indole-3-carboxamide, 2,2,2-trifluoroacetate] was tested. Which IC50 did it give?
**A.** 0.69 nM

**Q.** For Cn1ccc(-n2cc(C(=O)O[C@H]3C[C@H]4COC[C@@H](C3)N4)c3ccccc32)n1 [Compound 16, (1R,5S,7S)-3-oxa-9-azabicyclo[3.3.1]nonan-7-yl 1-(1-methyl-1H-pyrazol-3-yl)-1H-indole-3-carboxylate, 2,2,2-trifluoroacetic acid salt], which IC50 is on record?
**A.** 2.5 nM

**Q.** With CN1[C@@H]2COC[C@H]1CC(NC(=O)c1cn(-c3cccnc3)c3ccccc13)C2 (stereo partly drawn) [Compound 6, N-((1R,5S,7S)-9-methyl-d3-3-oxa-9-azabicyclo[3.3.1]nonan-7-yl)-1-(pyridin-3-yl)-1H-indole-3-carboxamide, 2,2,2-trifluoroacetate] as the compound, how does the IC50 read?
**A.** 1.1 nM

**Q.** Which IC50 does the source give for CN1[C@@H]2COC[C@H]1C[C@@H](OC(=O)c1cn(-c3cnn(CCF)c3)c3ccccc13)C2 [Compound 18, (1R,5S,7S)-9-methyl-3-oxa-9-azabicyclo[3.3.1]nonan-7-yl 1-(1-(2-fluoroethyl)-1H-pyrazol-4-yl)-1H-indole-3-carboxylate, 2,2,2-trifluoroacetic acid salt] here?
**A.** 2.01 nM

**Q.** N#Cc1cc(-n2cc(C(=O)O[C@H]3C[C@H]4COC[C@@H](C3)N4)c3ccccc32)ccn1 [Compound 19, (1R,5S,7S)-3-oxa-9-azabicyclo[3.3.1]nonan-7-yl 1-(2-cyanopyridin-4-yl)-1H-indole-3-carboxylate, 2,2,2-trifluoroacetic acid salt] was tested. Which IC50 did it give?
**A.** 3.68 nM

**Q.** CN1[C@@H]2COC[C@H]1C[C@@H](NC(=O)c1cn(-c3ccccn3)c3ccccc13)C2 [Compound 8, N-((1R,5S,7S)-9-methyl-d3-3-oxa-9-azabicyclo[3.3.1]nonan-7-yl)-1-(pyridin-2-yl)-1H-indole-3-carboxamide, 2,2,2-trifluoroacetate] was tested. Which IC50 did it give?
**A.** 0.81 nM

**Q.** For CN1[C@@H]2COC[C@H]1C[C@@H](NC(=O)c1cn(-c3ccccn3)c3ncc(F)cc13)C2 [Compound 12, 5-fluoro-N-((1R,5S,7S)-9-methyl-3-oxa-9-azabicyclo [3.3.1]nonan-7-yl)-1-(pyridin-2-yl)-1H-pyrrolo[2,3-b]pyridine-3-carboxamide, 2,2,2-trifluoroacetic acid salt], which IC50 is on record?
**A.** 0.882 nM

**Q.** CN1[C@@H]2COC[C@H]1C[C@@H](NC(=O)c1cn(-c3cnn(C(F)F)c3)c3ccccc13)C2 [Compound 25, 1-(1-(difluoromethyl)-1H-pyrazol-4-yl)-N-((1R,5S,7S)-9-methyl-3-oxa-9-azabicyclo [3.3.1]nonan-7-yl)-1H-indole-3-carboxamide] was tested. Which IC50 did it give?
**A.** 1.39 nM

**Q.** How did the IC50 turn out when Cn1cc(-n2cc(C(=O)N[C@H]3C[C@H]4COC[C@@H](C3)N4)c3ccccc32)cn1 [Compound 28, N-((1R,5S,7S)-3-oxa-9-azabicyclo[3.3.1]nonan-7-yl)-1-(1-methyl-1H-pyrazol-4-yl)-1H-indole-3-carboxamide] was run?
**A.** 2.04 nM

**Q.** For CN1[C@@H]2COC[C@H]1C[C@@H](OC(=O)c1cn(-c3ccccn3)c3ccccc13)C2 [Compound 7, (1R,5S,7S)-9-methyl-d3-3-oxa-9-azabicyclo[3.3.1]nonan-7-yl 1-(pyridin-2-yl)-1H-indole-3-carboxylate, 2,2,2-trifluoroacetate], which IC50 is on record?
**A.** 2.86 nM

**Q.** CN1[C@@H]2COC[C@H]1C[C@@H](NC(=O)c1nn(-c3ccccn3)c3ccccc13)C2 [Compound 14, N-((1R,5S,7S)-9-methyl-3-oxa-9-azabicyclo[3.3.1]nonan-7-yl)-1-(pyridin-2-yl)-1H-indazole-3-carboxamide, 2,2,2-trifluoroacetic acid salt] was tested. Which IC50 did it give?
**A.** 1.34 nM
